For assay [1], the target named is T1, HBHA110–199 (Mycobacterium tuberculosis, UniProt P9WIP9). To be noted: cited from earlier work.
Assay [2] concerns the target T1, HBHA110–199. Kind of assay: ITC binding of HS hexadecasaccharides with HBHA110–199. The settings on record: for n (sugar-to-protein binding ratio) / ΔG / ΔH / –TΔS: 25 °C, Tris buffer pH 7.6; for Kd: read-out: dissociation constant, KD.
In a further assay the target is T2, full-length HBHA (Mycobacterium tuberculosis, UniProt P9WIP9).
T2 sequence (P9WIP9 1-199): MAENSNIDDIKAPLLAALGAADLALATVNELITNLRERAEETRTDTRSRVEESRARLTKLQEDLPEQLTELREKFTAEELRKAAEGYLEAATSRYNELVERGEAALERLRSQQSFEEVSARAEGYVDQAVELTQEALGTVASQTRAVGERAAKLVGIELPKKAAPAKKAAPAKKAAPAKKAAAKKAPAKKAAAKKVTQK
Kind of assay: Far-UV circular dichroism of full-length HBHA with added sugar. The settings on record: varying equivalents added; negative control. Background: Circular dichroism is the unequal absorption of left and right circularly polarised light.

[3] abbreviates: Tris buffer pH 7.6, 25 °C, two trials, average ± standard deviation.

“Also recorded” adds a separate entry of the source. Like-named read-outs stand apart in the source and are kept apart here.

Take `O=C(O)[C@@H]1O[C@@H](O[C@H]2[C@H](O)[C@@H](NS(=O)(=O)O)[C@@H](O[C@H]3[C@H](O)[C@@H](OS(=O)(=O)O)[C@H]4OC[C@@H]3O4)O[C@@H]2COS(=O)(=O)O)[C@H](OS(=O)(=O)O)[C@@H](O)[C@@H]1O[C@H]1O[C@H](COS(=O)(=O)O)[C@@H](O[C@@H]2O[C@@H](C(=O)O)[C@@H](O[C@H]3O[C@H](COS(=O)(=O)O)[C@@H](O[C@@H]4O[C@@H](C(=O)O)[C@@H](O[C@H]5O[C@H](COS(=O)(=O)O)[C@@H](O)[C@H](O)[C@H]5NS(=O)(=O)O)[C@H](O)[C@H]4OS(=O)(=O)O)[C@H](O)[C@H]3NS(=O)(=O)O)[C@H](O)[C@H]2OS(=O)(=O)O)[C@H](O)[C@H]1NS(=O)(=O)O` [HS8]: the Kd on HBHA110–199 [1] (Average of Repeat I P(KKAA), residue 160-164, read-out: Dissociation constant from NMR cross-peak movement, average) was 24.5 µM; on HBHA110–199 [1] (Average of Repeat II P(AKKAA), residue 165-170, read-out: Dissociation constant from NMR cross-peak movement, average), 11.8 µM; on HBHA110–199 [1] (Average of Repeat III P(AKKAA), residue 171-176, read-out: Dissociation constant from NMR cross-peak movement, average), 6.9 µM; on HBHA110–199 [1] (Average of Repeat IV P(AKKAAAKKA), residue 177-186, read-out: Dissociation constant from NMR cross-peak movement, average), 6.2 µM; on HBHA110–199 [1] (Average of Repeat V P(AKKAAAKKV), residue 187-196, read-out: Dissociation constant from NMR cross-peak movement, average) it was 4.6 µM; at HBHA110–199 [1] (residue A163, Repeat I, read-out: Dissociation constant from NMR cross-peak movement), 20.7 µM. Besides, the Kd at HBHA110–199 [1] (residue A164, Repeat I, read-out: Dissociation constant from NMR cross-peak movement) was 22.2 µM; at HBHA110–199 [1] (residue A166, Repeat II, read-out: Dissociation constant from NMR cross-peak movement) it was 14.4 µM; at HBHA110–199 [1] (residue A169, Repeat II, read-out: Dissociation constant from NMR cross-peak movement), 14.6 µM; on HBHA110–199 [1] (residue A170, Repeat II, read-out: Dissociation constant from NMR cross-peak movement), 8.3 µM; at HBHA110–199 [1] (residue A172, Repeat III, read-out: Dissociation constant from NMR cross-peak movement) it was 10.3 µM; on HBHA110–199 [1] (residue A175, Repeat III, read-out: Dissociation constant from NMR cross-peak movement) it was 8.5 µM. Moreover, the Kd at HBHA110–199 [1] (residue A176, Repeat III, read-out: Dissociation constant from NMR cross-peak movement) was 5 µM; at HBHA110–199 [1] (residue A178, Repeat IV, read-out: Dissociation constant from NMR cross-peak movement), 4.8 µM; at HBHA110–199 [1] (residue A181, Repeat IV, read-out: Dissociation constant from NMR cross-peak movement) it was 4.8 µM; on HBHA110–199 [1] (residue A182, Repeat IV, read-out: Dissociation constant from NMR cross-peak movement) it was 4.6 µM; on HBHA110–199 [1] (residue A183, Repeat IV, read-out: Dissociation constant from NMR cross-peak movement) it was 4.6 µM; on HBHA110–199 [1] (residue A186, Repeat IV, read-out: Dissociation constant from NMR cross-peak movement), 3.1 µM. Moreover, the Kd is 4.8 µM at HBHA110–199 [1] (residue A188, Repeat V, read-out: Dissociation constant from NMR cross-peak movement); 5.3 µM at HBHA110–199 [1] (residue A191, Repeat V, read-out: Dissociation constant from NMR cross-peak movement); 4.6 µM at HBHA110–199 [1] (residue A192, Repeat V, read-out: Dissociation constant from NMR cross-peak movement); 4.8 µM at HBHA110–199 [1] (residue A193, Repeat V, read-out: Dissociation constant from NMR cross-peak movement); 9.8 µM at HBHA110–199 [1] (residue K161, Repeat I, read-out: Dissociation constant from NMR cross-peak movement); 45.3 µM at HBHA110–199 [1] (residue K162, Repeat I, read-out: Dissociation constant from NMR cross-peak movement). In addition, the Kd is 4.2 µM at HBHA110–199 [1] (residue K167, Repeat II, read-out: Dissociation constant from NMR cross-peak movement); 17.2 µM at HBHA110–199 [1] (residue K168, Repeat II, read-out: Dissociation constant from NMR cross-peak movement); 4.2 µM at HBHA110–199 [1] (residue K173, Repeat III, read-out: Dissociation constant from NMR cross-peak movement); 6.6 µM at HBHA110–199 [1] (residue K174, Repeat III, read-out: Dissociation constant from NMR cross-peak movement); 6.6 µM at HBHA110–199 [1] (residue K179, Repeat IV, read-out: Dissociation constant from NMR cross-peak movement); 4.1 µM at HBHA110–199 [1] (residue K180, Repeat IV, read-out: Dissociation constant from NMR cross-peak movement). Also, the Kd on HBHA110–199 [1] (residue K184, Repeat IV, read-out: Dissociation constant from NMR cross-peak movement) is 18.3 µM; on HBHA110–199 [1] (residue K185, Repeat IV, read-out: Dissociation constant from NMR cross-peak movement) it was 4.5 µM; at HBHA110–199 [1] (residue K189, Repeat V, read-out: Dissociation constant from NMR cross-peak movement), 5.9 µM; at HBHA110–199 [1] (residue K190, Repeat V, read-out: Dissociation constant from NMR cross-peak movement), 4.1 µM; on HBHA110–199 [1] (residue K194, Repeat V, read-out: Dissociation constant from NMR cross-peak movement), 4.9 µM; on HBHA110–199 [1] (residue K195, Repeat V, read-out: Dissociation constant from NMR cross-peak movement), 4.6 µM. The Kd is 2.7 µM at HBHA110–199 [1] (residue V196, Repeat V, read-out: Dissociation constant from NMR cross-peak movement) and 2.4 ± 0.3 µM on HBHA110–199 [2] (setting [3]). Besides, the “average Δδresidue (weighted chemical shift deviation) of HBHA110–199” value on HBHA110–199 [1] (protein-to-sugar molar ratio 1:2, all residues, reported previously, ref Huang et al., 2017) was 0.019 ppm. The “n (sugar-to-protein binding ratio)” value at HBHA110–199 [2] was 0.56 ± 0.01. On HBHA110–199 [2], the ΔG entry is on record as “–7.68 ± 0.08 kcal/mol”. The same molecule showed a ΔH on HBHA110–199 [2] of 5.38 ± 0.05 kcal/mol. For the same molecule, the “–TΔS” value on HBHA110–199 [2] was “–13.05 ± 0.07 kcal/mol”.

For the molecule `CC(=O)N[C@H]1[C@@H](O[C@H]2[C@H](O)[C@@H](O)[C@H]3OC[C@@H]2O3)O[C@H](CO)[C@@H](O[C@@H]2O[C@@H](C(=O)O)[C@@H](O[C@H]3O[C@H](CO)[C@@H](O[C@@H]4O[C@@H](C(=O)O)[C@@H](O[C@H]5O[C@H](CO)[C@@H](O[C@@H]6O[C@@H](C(=O)O)[C@@H](O[C@H]7O[C@H](CO)[C@@H](O[C@@H]8O[C@@H](C(=O)O)[C@@H](O[C@H]9O[C@H](CO)[C@@H](O[C@@H]%10O[C@@H](C(=O)O)[C@@H](O[C@H]%11O[C@H](CO)[C@@H](O[C@@H]%12O[C@@H](C(=O)O)[C@@H](O[C@H]%13O[C@H](CO)[C@@H](O[C@@H]%14O[C@@H](C(=O)O)[C@@H](O[C@H]%15O[C@H](CO)[C@@H](O)[C@H](O)[C@H]%15NC(C)=O)[C@H](O)[C@H]%14O)[C@H](O)[C@H]%13NC(C)=O)[C@H](O)[C@H]%12O)[C@H](O)[C@H]%11NC(C)=O)[C@H](O)[C@H]%10O)[C@H](O)[C@H]9NC(C)=O)[C@H](O)[C@H]8O)[C@H](O)[C@H]7NC(C)=O)[C@H](O)[C@H]6O)[C@H](O)[C@H]5NC(C)=O)[C@H](O)[C@H]4O)[C@H](O)[C@H]3NC(C)=O)[C@H](O)[C@H]2O)[C@@H]1O` [compound 20], the “conformational change of full-length HBHA (CD)” value on full-length HBHA is listed as “did not induce any significant conformational change”. The “dissociation constant, KD” value at HBHA110–199 [2] (setting [3]) was “no detectable binding; also recorded: no binding detected”.

Turning to `O=C(O)[C@@H]1O[C@@H](O[C@H]2[C@H](O)[C@@H](NS(=O)(=O)O)[C@@H](O[C@H]3[C@H](O)[C@@H](O)[C@H]4OC[C@@H]3O4)O[C@@H]2COS(=O)(=O)O)[C@H](O)[C@@H](O)[C@@H]1O[C@H]1O[C@H](COS(=O)(=O)O)[C@@H](O[C@@H]2O[C@@H](C(=O)O)[C@@H](O[C@H]3O[C@H](COS(=O)(=O)O)[C@@H](O[C@@H]4O[C@@H](C(=O)O)[C@@H](O[C@H]5O[C@H](COS(=O)(=O)O)[C@@H](O[C@@H]6O[C@@H](C(=O)O)[C@@H](O[C@H]7O[C@H](COS(=O)(=O)O)[C@@H](O[C@@H]8O[C@@H](C(=O)O)[C@@H](O[C@H]9O[C@H](COS(=O)(=O)O)[C@@H](O[C@@H]%10O[C@@H](C(=O)O)[C@@H](O[C@H]%11O[C@H](COS(=O)(=O)O)[C@@H](O[C@@H]%12O[C@@H](C(=O)O)[C@@H](O[C@H]%13O[C@H](COS(=O)(=O)O)[C@@H](O)[C@H](O)[C@H]%13NS(=O)(=O)O)[C@H](O)[C@H]%12O)[C@H](O)[C@H]%11NS(=O)(=O)O)[C@H](O)[C@H]%10O)[C@H](O)[C@H]9NS(=O)(=O)O)[C@H](O)[C@H]8O)[C@H](O)[C@H]7NS(=O)(=O)O)[C@H](O)[C@H]6O)[C@H](O)[C@H]5NS(=O)(=O)O)[C@H](O)[C@H]4O)[C@H](O)[C@H]3NS(=O)(=O)O)[C@H](O)[C@H]2O)[C@H](O)[C@H]1NS(=O)(=O)O` [compound 32], on HBHA110–199 [2], the “n (sugar-to-protein binding ratio)” value was 0.30 ± 0.01, the ΔG result is listed as “–7.69 ± 0.08 kcal/mol”, the ΔH was found to be 11.50 ± 0.28 kcal/mol and the “–TΔS” value is listed as “–19.15 ± 0.21 kcal/mol”. Moreover, the Kd at HBHA110–199 [2] (setting [3]) is 2.36 ± 0.3 µM.
